In PubChem BioAssay (NCI):
“And” between values parts separate entries of the source, which are not always exact repeats. Identical values can stand only once.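 All cell lines were grown in 96-well plates and treated with compound for 48 hours. GI50 is the concentration that inhibits growth by half. At the TGI there is no net growth.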

What was measured:
Assay in all cases: NCI anticancer screen, dose series, 48 h
HCT-116 colon = test system: HCT-116 colon
TK-10 renal = test system: TK-10 renal
MCF7 breast = test system: MCF7 breast
SNB-75 CNS = test system: SNB-75 CNS
COLO 205 colon = test system: COLO 205 colon
UO-31 renal = test system: UO-31 renal
UACC-257 melanoma = test system: UACC-257 melanoma
NCI-H23 lung = test system: NCI-H23 lung
RXF 393 renal = test system: RXF 393 renal
CAKI-1 renal = test system: CAKI-1 renal

| SMILES | GI50 (HCT-116 colon) | TGI (HCT-116 colon) [µM] | GI50 (TK-10 renal) [µM] | TGI (TK-10 renal) [µM] | GI50 (MCF7 breast) [µM] | TGI (MCF7 breast) | GI50 (SNB-75 CNS) [µM] | TGI (SNB-75 CNS) | GI50 (COLO 205 colon) | TGI (COLO 205 colon) [µM] | GI50 (UO-31 renal) | TGI (UO-31 renal) | GI50 (UACC-257 melanoma) | TGI (UACC-257 melanoma) | GI50 (NCI-H23 lung) | TGI (NCI-H23 lung) [µM] | GI50 (RXF 393 renal) | TGI (RXF 393 renal) | GI50 (CAKI-1 renal) | TGI (CAKI-1 renal) [µM] |
| --- | --- | --- | --- | --- | --- | --- | --- | --- | --- | --- | --- | --- | --- | --- | --- | --- | --- | --- | --- | --- |
| Cn1cccc1-c1cc(-c2ccc(Br)cc2)nc(N)c1C#N | > 100 µM | > 100 | > 100 | > 100 | > 100 | > 100 µM | 22.2 | 84.3 µM | > 100 µM | > 100 | > 100 µM | > 100 µM | > 100 µM | > 100 µM | > 100 µM | > 100 | 30.3 µM | > 100 µM | > 100 µM | > 100 |
| O=C(/C=N/O)c1c(-c2ccccc2)[nH]c(-c2ccccc2)c1-c1ccccc1 | – | 72.6 | – | 40.8 | – | 39.7 µM | – | 55.7 µM | – | 36.6 | – | 36.3 µM | – | 35 µM | – | 21.3 | – | 31.6 µM | – | 48.1 |
| Cc1nc2cc(O)c(O)cc2cc1Oc1ccc(NC(=O)Nc2ccc(Cl)c(Cl)c2)cc1 | 2.24 µM | 13.6 | 14.2 | > 32.5 | 8.71 | > 32.5 µM | 7.73 | 28.9 µM | 10.3 µM | > 32.5 | 6.97 µM | 14.9 µM | 7.27 µM | 21.4 µM | 6.97 µM | 19.6 | 9.24 µM | > 32.5 µM | 4.96 µM | 30 |
| Cn1c(=O)c(F)c(Nc2ccc(I)cc2F)c2c(=O)n(C[C@@H](O)CO)cnc21 | < 0.01 µM and 0.00832 µM | 11.5 | – | 26.4 | 21 | 75 µM and > 4.05 µM | 4.11 | 30.8 µM and > 2.29 µM | < 0.01 µM and 0.00271 µM | – | 0.304 µM and 0.0568 µM | 15.4 µM and > 4.09 µM | < 0.01 µM and 0.00301 µM | < 0.01 µM and 0.0262 µM | 0.0183 µM and 0.0231 µM | > 46.4 | 0.16 µM and 0.162 µM | 4 µM and > 2.93 µM | 0.649 µM and 0.139 µM | > 90 |
| CCOC(=O)C(=Cc1ccccc1Br)C(=O)OCC | – | > 100 | – | 8.7 | – | > 100 µM | – | 75.5 µM | – | 6.77 | – | – | – | 14.7 µM | – | 7.79 | – | 4.97 µM | – | 6.83 |
| CC(C)[C@]12O[C@H]1[C@@H]1O[C@]13[C@]1(O[C@H]1C[C@H]1c4c(C(=O)c5ccccc5)oc(OC(=O)c5ccccc5)c4CC[C@@]13C)[C@@H]2O | 0.0142 µM | > 100 | 0.0282 | 27.1 | 0.0139 | 19.9 µM | 0.0224 | 0.17 µM | – | – | 0.0223 µM | 10.5 µM | 0.0168 µM | 0.0628 µM | < 0.0105 µM | 0.111 | 0.0196 µM | 0.0497 µM | 0.0183 µM | 50.2 |
| CC(O)CN(CCN(CC(C)O)CC(C)O)CC(C)O.O=[N+]([O-])O.[Cu+2] (stereo not given) | > 100 µM | > 100 | > 100 | > 100 | 93.1 | > 100 µM | > 100 | > 100 µM | > 100 µM | > 100 | > 100 µM | > 100 µM | > 100 µM | > 100 µM | > 100 µM | > 100 | > 100 µM | > 100 µM | > 100 µM | > 100 |
| N#C/C(=C/N1CCN(C(=O)c2ccco2)C1=S)C(N)=O | 21.2 µM | 92.9 | 12.1 | 53.6 | 1.71 | 21 µM | > 100 | > 100 µM | 24.9 µM | > 100 | 23.5 µM | 51.8 µM | 23.3 µM | 50.8 µM | 21.4 µM | 44 | 19.2 µM | 82.2 µM | 11.8 µM | 34.4 |
| COC(=O)c1ccc2c(c1)nc(-c1ccc(Cl)cc1)n2-c1cc(C(C)(C)C)[nH]n1 | 3.46 µM | 12.3 | 6.94 | > 100 | 2.79 | 12.3 µM | 2.14 | 12.6 µM | 2.29 µM | 6.04 | 3.35 µM | 44.1 µM | 4.97 µM | 22.9 µM | 3.42 µM | 36 | 1.57 µM | 5.77 µM | 2.25 µM | 12.8 |
| CCOc1ccc2c(c1)/C(=C\C=C\C1CC(C)C3CC(OCC)CCC3N1CC)CC(C)N2CC (stereo not given) | 0.789 µM | 2.17 | 1.5 | 2.93 | 0.627 | 2.43 µM | 0.599 | 1.92 µM | 1.36 µM | 2.82 | 1.59 µM | 3.31 µM | 0.795 µM | 2.15 µM | 0.567 µM | 2.38 | 1.17 µM | 2.59 µM | 1.65 µM | 4.16 |
| O=[N+]([O-])c1ccc2[nH]cc(-c3c4ccccc4cc4[nH]c5ccc([N+](=O)[O-])cc5c34)c2c1 | 2.16 µM | 5 | 2.59 | 6.79 | 1.65 | 3.73 µM | 1.84 | 5.93 µM | 2.46 µM | 7 | 1.76 µM | 5.1 µM | 2.45 µM | 7.13 µM | 2.59 µM | 8.11 | 2.03 µM | 4.73 µM | 1.8 µM | 3.64 |
| O=C1c2cccnc2-c2nc(-c3ccc([N+](=O)[O-])cc3)cc3c2c1nc1ccccc13 | 2.56 µM | > 26.1 | 8.41 | 24.9 | 1.86 | > 21.5 µM | 4.43 | 12.1 µM | 5.54 µM | 11.9 | 5.1 µM | > 66.1 µM | 2.21 µM | 7.32 µM | 2.51 µM | 10.1 | 9.37 µM | 37.7 µM | 13.8 µM | > 100 |
| COc1cc2c(/C=C3\C(=O)Nc4ccc(Br)cc43)c(Cl)n(C)c2cc1C | 1.61 µM | 7.17 | 2.72 | 9.19 | 0.322 | 6.53 µM | 1.82 | > 25.7 µM | 1.96 µM | 5.43 | 2.46 µM | 11.3 µM | 7.56 µM | 31 µM | 2.78 µM | 13 | 1.71 µM | 7.33 µM | 2.26 µM | 7.3 |
